From patent US20140106015A1, “COMPOSITION CONTAINING HEAT-TREATED POWDER OR EXTRACT OF GLYCINE SOJA AS ACTIVE GRADIENT FOR PREVENTION AND TREATMENT OF DIABETES MELLITUS AND DIABETIC COMPLICATIONS” (KOC BIOTEC CO LTD, priority 2011, published 2014)

Experiments:
Assay type in all cases: in vivo, mouse
[1] = system: BKS.Cg-m+/+ Leprdb/J homozygous diabetic (db/db) mice; test: Experimental Example 5: efficacy comparison with anthocyanins, pinitol, banaba/Cr complex in db/db mice
Procedure: “Pinitol”: Product containing 95% or more of pinitol (Sigma-Aldrich) “Banaba/Cr complex”: Wellness Banaba Gold ChromeTM (containing 400 mg/g banaba leaf extract, 200 mg/g indigestible maltodextrin and 0.1 mg/g chromium) Male db/db mice, aged 3 weeks, were acclimatized to an animal breeding room for 1 week. 4 mice were assigned to each experimental group. […] All animals were fasted for 6 h from 9 a.m. to 3 p.m. every Wednesday. Blood samples were collected from the mouse tail vein and blood glucose levels were measured using a portable blood glucose meter (OneTOUCH@Ultra, Johnson & Johnson, USA). […] The following are a total of 8 experimental groups used. Classification of Experimental Groups • NC: […] After the drug (test material) was administered to each experimental group for 6 weeks, abdominal, epididymal, and inguinal adipose tissues were excised from each experimental animal. The total weight of the adipose tissues was measured. […] For the autopsy, each animal was fasted for 12 h. […] After plasma was separated, the levels of total cholesterol, high-density lipoprotein (HDL) cholesterol, low-density lipoprotein (LDL) cholesterol, triglyceride, BUN, and phospholipid in the plasma were measured using an automatic biochemical analyzer (Hitachi-720, Hitachi Medical, Japan). […] The levels of glucose and insulin in the serum were analyzed. Plasma was obtained as a sample in the same manner. The plasma insulin level was measured using a Mouse Insulin ELISA kit (Shibayagi, Japan) and an ELISA reader (Labsystems, Finland). Data obtained from the above experiments were expressed as mean±standard error and significance assay was determined using Student's T-test.

db/db mice [2] = test: Experimental Example 2: glycine soja streamed powder versus metformin in db/db mice, 6 weeks oral; conditions: age of 10 weeks, fasted about 16 h, DC and bean powder 2 g/kg/day, metformin 150 mg/kg/day
db/db mice [3] = test: as above; conditions: age of 10 weeks
Procedure: The glycine soja streamed powder (DC) was diluted with physiological saline and the dilution was orally administered in divided portions (each 0.2 ml) at 10 a.m. and 4 p.m. daily using a mouse sonde (2 g/kg/day). Metformin (1,1-dimethylbiguanide), which is a widely used hypoglycemic agent, was chosen as positive control. Metformin was dissolved in 0.25% carboxymethylcellulose (CMC) and administered orally in two divided portions (each 0.2 ml) in the same manner (150 mg/kg/day). The same amount of physiological saline as negative control was administered in the same manner. A general bean streamed powder was used as another comparative test group. The bean streamed powder was obtained in the same manner as in Example 1, except that bean was used instead of glycine soja. The bean streamed powder was administered orally twice a day in the same amount and manner as the glycine soja streamed powder (DC).
Male db/db mice, aged 3 weeks, were acclimatized to an animal breeding room for 1 week. 6 mice were assigned to each experimental group. The blood glucose levels of the animals were measured from the age of 4 weeks at intervals of 1 week for a total of 6 weeks. Drug was administered orally in divided portions (each 0.2 ml) at 10 a.m. and 4 p.m. daily using a mouse sonde. All animals were fasted for 6 h from 9 a.m. to 3 p.m. every Wednesday. Blood samples were collected from the mouse tail vein and blood glucose levels were measured using a portable blood glucose meter (OneTOUCH@Ultra. Johnson & Johnson, USA). Since serum for final biochemical analysis requires blood sampling after fasting for at least 12 h, blood glucose levels were measured at the final 8th week. 2 days after the measurement, an autopsy was conducted. For the autopsy, all animals were fasted for 12 h. Blood samples were drawn from the heart under ether anesthesia, put in tubes for serum separation, and centrifuged at 3000 rpm for 20 min to obtain serum samples, which were used as samples for the analysis of biochemical indices.
Experimental Group Classification • Control (db/db mice) (n=6) • Positive control (Metformin, 150 mg/kg/day, o.p) (n=6) • Glycine soja streamed powder (DC) (2.0 g/kg/day, o.p) (n=6) • Bean powder (2.0 g/kg/day, o.p) (n=6)
After a test material was administered to each experimental group for 6 weeks, blood glucose level was measured at the final 8th week. 2 days after the measurement, an autopsy was conducted. For the autopsy, each animal was fasted for 12 h. Blood was drawn from the heart under ether anesthesia, put in a tube for serum separation, and centrifuged at 3000 rpm for 20 min to obtain serum, which was used as a sample for the analysis of biochemical indices. The glucose and insulin levels of the serum were analyzed. Changes in the insulin level and insulin resistance index (HOMAIR) of each experimental group during administration for 8 weeks period were calculated by the following formulae. Plasma was obtained as a sample in the same manner. The level of insulin in the plasma was measured using a Mouse Insulin ELISA kit (Shibayagi, Japan) and an ELISA reader (Labsystems, Finland).
After a test material was administered to each experimental group for 6 weeks, abdominal, epididymal, and inguinal adipose tissues were excised from each experimental animal. The total weight of the adipose tissues was measured.
Blood was obtained in the same manner as in 1-3, put in a tube for serum separation, and centrifuged at 3000 rpm for 20 min to obtain serum, which was used as a sample for the analysis of biochemical indices. Total cholesterol, high-density lipoprotein (HDL) cholesterol, low-density lipoprotein (LDL) cholesterol, triglyceride, and phospholipid levels, which are indices of lipid contents in plasma and liver, in the plasma were measured using an automatic biochemical analyzer (Hitachi-720, Hitachi Medical, Japan). […]

[4] = db/db mice, 100 mg/kg/day, BANABA 300 mg/kg/day
[5] = DC and bean powder 2 g/kg/day, metformin 150 mg/kg/day
[6] = metformin 150 mg/kg/day, bean powder 2 g/kg/day

CO[C@H]1[C@H](O)[C@@H](O)[C@@H](O)[C@H](O)[C@@H]1O [Pinitol, pinitol]
serum BUN level higher than non-treated group ([1]; No. 4 mouse of the Pinitol-administered group): ≥ 3 times
serum BUN level ([1]; No. 4 mouse of the Pinitol-administered group, 100 mg/kg/day, NC 30.2 mg/dL): 92.8 mg/dL
blood glucose level ([1]; db/db mice, 9th week, tail vein, fasted 6 h, oral 6 weeks, 100 mg/kg/day, BANABA 300 mg/kg/day): 231.8 mg/dL
blood glucose level lower than NC (hypoglycemic efficacy) ([1]; db/db mice, 9th week, 100 mg/kg/day, BANABA 300 mg/kg/day): 52.1%
daily food intake compared with non-treated group ([1]; db/db mice, after completion of the tests): smaller
serum low-density lipoprotein cholesterol level compared with non-treated group ([1]; db/db mice, age of 9 weeks): not substantially different
serum insulin level ([1]; db/db mice, age of 9 weeks, 100 mg/kg/day, BANABA 300 mg/kg/day): 6.6 ng/mL
serum insulin level lower than NC (suppressive efficacy on insulin resistance) ([1]; db/db mice, age of 9 weeks, NC 10.2 ng/ml): 35.3%
serum triglyceride (TG) level relative to non-treated group (NC) ([1]; db/db mice, age of 9 weeks, NC 22 mg/dL): approximately twice
serum total cholesterol level compared with non-treated group ([1]; db/db mice, age of 9 weeks, NC 168.3 mg/dL): not substantially different
adipose tissue weight lower than non-treated group (NC) ([1]; db/db mice, age of 10 weeks): about 5.4%
liver tissue weight compared with NC ([1]; db/db mice, age of 10 weeks): not substantially different
liver tissue weight lower than non-treated group (NC) ([1]; db/db mice, age of 10 weeks, p<0.05): about 7.0%
food efficiency ratio compared with non-treated group ([1]; db/db mice, for 5 weeks): similar
Food efficiency ratio (PER, %) ([1]; db/db mice, for 5 weeks, calculated from food intakes and body weight gains): 11.9 ± 1.28%
Body weight gain [1, 4]: 0.500 ± 0.05 g/day
Food intake [1, 4]: 4.20 g/day

CN(C)C(=N)NC(=N)N [metformin, 1,1-dimethylbiguanide]
serum glucose level (db/db mice [2]): 376.0 mg/dL
serum high-density lipoprotein cholesterol level compared with non-administered group (db/db mice [3]): no significant differences
serum triglyceride level lower than non-administered group (NC) (db/db mice [3]; DC 2 g/kg/day, metformin 150 mg/kg/day): 38.8%
serum ALT level (db/db mice [3]; [5]): 54.9 U/L
serum AST level (db/db mice [3]; [5]): 120.0 U/L
serum glucose level lower than non-administered group (db/db mice [3]; [5]): 34.6%
serum triglyceride (TG) level (db/db mice [3]; [5]): 78.8 mg/dL
serum total cholesterol level compared with non-administered group (db/db mice [3]; metformin 150 mg/kg/day): low compared to that of the non-administered group, but there was no statistical significance
serum insulin level compared with non-administered group (db/db mice [3]; [6]): slightly lower than the serum insulin level of the non-administered group, but there were no statistical significances
serum low-density lipoprotein cholesterol level compared with non-administered group (db/db mice [3]; [6]): low compared to the low-density lipoprotein cholesterol level of the non-administered group, but there were no statistical significances
blood glucose level lower than non-administered group (NC) (db/db mice [3]; oral 6 weeks, DC and bean powder 2 g/kg/day, metformin 150 mg/kg/day): 34.6%
